Source: patent US12162858B2, “Quinoline derivatives as inhibitors of AXL/MER RTK and CSF1R” (QURIENT CO., LTD., priority 2018, dated 2024)

How the values were obtained:
Format in all cases: cell-based
CSF1R (Ba/F3 cells) = CSF1R (Ba/F3 cells) (Homo sapiens, UniProt P07333); assay: BaF3 viability assay, CSF1R-dependent cells; conditions: read-out: Cellular CSF1R activity by Ba/F3 assay (IC50)
Text: (§1) In this system, IL-3-dependent Ba/F3 cells are modified to express an activated recombinant kinase (in the present case Axl, Mer and CSF1R). Following removal of IL-3, the modified cells are dependent on the activity of the recombinant kinase for survival and proliferation. Inhibition of such kinase(s) through test compounds reduces survival and proliferation of the cells.
(§2) Cell lines were maintained in growth media (GM) consisting of RPMI 1640 supplemented with 10% FBS. Cells in logarithmic-phase growth were harvested and 5,000 cells were distributed into each well of a 384-well plate in 50 μl GM. Parental cells (or experimental assays where specified) were further supplemented with 2 ng/ml IL-3 to support cell growth and survival. Fifty nanoliters of the indicated reference standard or experimental compound were added to appropriate wells (in duplicate) and the cells were cultured for 48 h at 37° C./5% CO2. Viability was determined by adding 10 μl Cell Titer Glo and measuring luminescence, which is reported as relative light units (RLU) measured in counts per second. The following calculations and formulas are used for data analysis using GraphPad Prism software: The curve fitting was made using the Dose response curves-Inhibition.

Mer (Ba/F3 cells) = biological target: T1, Mer (Ba/F3 cells) (Homo sapiens, UniProt Q12866); assay: BaF3 viability assay, Mer-dependent cells; conditions: read-out: Cellular Mer activity by Ba/F3 assay (IC50)
T1 sequence (Q12866 1-999): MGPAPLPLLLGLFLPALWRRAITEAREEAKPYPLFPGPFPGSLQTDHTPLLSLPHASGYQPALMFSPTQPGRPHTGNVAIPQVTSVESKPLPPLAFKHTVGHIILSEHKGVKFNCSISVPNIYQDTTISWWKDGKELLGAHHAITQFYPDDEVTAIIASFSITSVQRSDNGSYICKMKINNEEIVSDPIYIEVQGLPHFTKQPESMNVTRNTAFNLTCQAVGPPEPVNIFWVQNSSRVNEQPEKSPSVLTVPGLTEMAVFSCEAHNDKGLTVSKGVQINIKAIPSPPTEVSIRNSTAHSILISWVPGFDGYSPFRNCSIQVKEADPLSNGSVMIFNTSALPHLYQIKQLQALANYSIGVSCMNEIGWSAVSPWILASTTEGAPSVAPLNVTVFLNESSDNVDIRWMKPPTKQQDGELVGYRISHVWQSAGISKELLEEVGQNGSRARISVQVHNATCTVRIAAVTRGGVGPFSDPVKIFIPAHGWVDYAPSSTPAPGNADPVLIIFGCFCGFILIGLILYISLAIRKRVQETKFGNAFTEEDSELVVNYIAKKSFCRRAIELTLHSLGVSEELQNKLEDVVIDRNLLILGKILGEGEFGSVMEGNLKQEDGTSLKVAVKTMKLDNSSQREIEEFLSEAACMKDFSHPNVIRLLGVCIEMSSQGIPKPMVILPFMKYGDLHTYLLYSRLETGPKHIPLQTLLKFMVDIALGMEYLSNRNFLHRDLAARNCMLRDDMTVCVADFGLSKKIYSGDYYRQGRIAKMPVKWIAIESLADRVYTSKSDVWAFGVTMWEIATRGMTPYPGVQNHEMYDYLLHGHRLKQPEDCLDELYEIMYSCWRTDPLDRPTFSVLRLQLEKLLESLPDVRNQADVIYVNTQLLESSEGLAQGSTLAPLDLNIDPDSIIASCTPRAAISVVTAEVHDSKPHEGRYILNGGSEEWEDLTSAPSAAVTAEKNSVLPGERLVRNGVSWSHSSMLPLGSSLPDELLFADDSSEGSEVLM
Text: as §1, §2

Axl (Ba/F3 cells) = biological target: T2, Axl (Ba/F3 cells) (Homo sapiens, UniProt P30530); assay: BaF3 viability assay, Axl-dependent cells; conditions: read-out: Cellular Axl activity by Ba/F3 assay (IC50)
T2 sequence (P30530 1-894): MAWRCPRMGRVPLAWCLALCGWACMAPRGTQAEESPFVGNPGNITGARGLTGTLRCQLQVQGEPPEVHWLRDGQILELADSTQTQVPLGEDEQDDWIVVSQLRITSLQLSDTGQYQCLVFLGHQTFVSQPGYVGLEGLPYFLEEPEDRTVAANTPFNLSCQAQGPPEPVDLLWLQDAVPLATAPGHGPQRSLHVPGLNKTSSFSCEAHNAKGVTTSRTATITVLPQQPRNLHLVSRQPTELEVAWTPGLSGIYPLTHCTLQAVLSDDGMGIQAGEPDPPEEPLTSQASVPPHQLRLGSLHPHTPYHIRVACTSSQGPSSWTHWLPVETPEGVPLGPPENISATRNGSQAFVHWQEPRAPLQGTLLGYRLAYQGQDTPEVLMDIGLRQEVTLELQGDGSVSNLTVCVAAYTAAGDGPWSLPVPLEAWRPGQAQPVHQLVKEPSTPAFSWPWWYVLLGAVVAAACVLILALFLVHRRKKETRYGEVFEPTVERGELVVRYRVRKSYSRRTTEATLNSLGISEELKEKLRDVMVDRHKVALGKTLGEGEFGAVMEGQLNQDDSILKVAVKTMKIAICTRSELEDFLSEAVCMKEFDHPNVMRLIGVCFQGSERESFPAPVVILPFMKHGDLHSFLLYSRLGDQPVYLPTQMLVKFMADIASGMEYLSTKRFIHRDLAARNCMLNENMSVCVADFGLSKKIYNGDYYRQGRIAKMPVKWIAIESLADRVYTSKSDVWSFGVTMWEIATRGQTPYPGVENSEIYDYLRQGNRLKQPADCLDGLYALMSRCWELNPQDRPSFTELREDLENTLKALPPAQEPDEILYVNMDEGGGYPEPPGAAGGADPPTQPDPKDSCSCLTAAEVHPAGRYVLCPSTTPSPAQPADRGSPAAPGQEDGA
Text: as §1, §2

Measured: GI50

Sequence of CSF1R (Ba/F3 cells) (P07333 whole entry, change not shown): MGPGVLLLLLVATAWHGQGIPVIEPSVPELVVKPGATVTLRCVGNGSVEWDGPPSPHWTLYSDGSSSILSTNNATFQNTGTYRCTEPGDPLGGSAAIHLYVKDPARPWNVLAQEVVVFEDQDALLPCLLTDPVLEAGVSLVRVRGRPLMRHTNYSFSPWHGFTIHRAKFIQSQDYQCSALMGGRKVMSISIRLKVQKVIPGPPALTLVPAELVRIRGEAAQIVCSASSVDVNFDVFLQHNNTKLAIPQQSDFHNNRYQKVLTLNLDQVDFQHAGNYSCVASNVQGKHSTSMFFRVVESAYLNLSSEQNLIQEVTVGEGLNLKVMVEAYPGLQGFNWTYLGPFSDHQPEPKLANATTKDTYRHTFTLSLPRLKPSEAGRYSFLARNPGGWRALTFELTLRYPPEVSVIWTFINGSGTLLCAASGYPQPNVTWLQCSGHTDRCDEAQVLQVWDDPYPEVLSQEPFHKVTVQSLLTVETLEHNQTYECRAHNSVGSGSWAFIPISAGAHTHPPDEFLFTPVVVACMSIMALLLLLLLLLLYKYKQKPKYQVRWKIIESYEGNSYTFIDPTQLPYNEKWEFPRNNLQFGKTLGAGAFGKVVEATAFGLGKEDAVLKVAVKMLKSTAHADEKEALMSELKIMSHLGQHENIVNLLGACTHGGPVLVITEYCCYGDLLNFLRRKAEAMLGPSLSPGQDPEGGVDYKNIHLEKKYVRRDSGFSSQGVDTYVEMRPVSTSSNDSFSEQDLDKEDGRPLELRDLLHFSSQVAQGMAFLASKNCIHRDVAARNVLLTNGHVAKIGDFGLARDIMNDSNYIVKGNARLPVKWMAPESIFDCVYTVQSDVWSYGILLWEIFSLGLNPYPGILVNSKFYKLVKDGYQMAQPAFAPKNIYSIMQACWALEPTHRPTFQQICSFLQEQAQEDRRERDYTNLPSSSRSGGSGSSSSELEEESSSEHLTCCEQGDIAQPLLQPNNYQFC

COCCn1cc(OCC(F)(F)F)c(C(=O)Nc2ccc(Oc3ccnc4cc(OC)c(OC)cc34)cn2)n1 [Compound 10]
< 1000 nM: all assays above

CCCn1cc(OCC(F)(F)F)c(C(=O)Nc2ccc(Oc3ccnc4cc(OC)c(OC)cc34)cn2)n1 [Compound 7]
< 1000 nM: all assays above

COc1cc2nccc(Oc3ccc(NC(=O)c4n[nH]cc4OCC(F)(F)F)nc3)c2cc1OC [Compound 16]
< 1000 nM: all assays above

CCCn1cc(OCC(F)F)c(C(=O)Nc2ccc(Oc3ccnc4cc(OC)c(OC)cc34)cn2)n1 [Compound 12]
< 1000 nM: all assays above

CCn1cc(OCC(F)(F)F)c(C(=O)Nc2ccc(Oc3ccnc4cc(OC)c(OC)cc34)cn2)n1 [Compound 4]
< 1000 nM: all assays above
